Test results as given in patent US10683487B2, “Myrmecridium flexuosum NUK-21, novel lactose oxidase isolated from Myrmecridium flexuosum NUK-21, and method for conversion of lactose into lactobionic acid by novel lactose oxidase” (NATIONAL UNIVERSITY OF KAOHSIUNG, priority 2017, dated 2020).
Where two headings read alike, the source gives them in different places.

Experiments:
[1] = system: lactose oxidase of the NUK-21 strain; experiment: Effects of chemicals on enzyme activity (dissolved oxygen assay); format: biochemical, Myrmecridium flexuosum NUK-21
Protocol: The purified enzyme was added to A buffer containing 1 mM of various chemical solution and incubated in a water bath at 30° C. for 1 hour. Dissolved oxygen assay was used to determine the enzyme activity of lactose oxidase.

[2] = system: lactose oxidase of the NUK-21 strain; format: biochemical, Myrmecridium flexuosum NUK-21
NUK-21 strain = format: cell-based, Myrmecridium flexuosum NUK-21
[3] = system: lactose oxidase of the NUK-21 strain; experiment: Substrate specificity of lactose oxidase (OD500 nm peroxidase chromogen assay); format: biochemical, Myrmecridium flexuosum NUK-21
Protocol: Fifty mM of various buffers with different pH values were prepared, including CH3COOH—CH3COONa (pH 4.5-5.5), K2HPO4—NaH2PO4 (pH 5.5-8.0), Tris-HCl (pH 7.0-9.0), and Na2CO3—NaHCO3 (pH 9.0-11). Enzyme activity was determined by peroxidase chromogen method (Clin Chem, 1974; 20:470-475). The substrate, buffer and enzyme were premixed and reacted for 2 minutes, and then 4-aminoantipyrine (4-AA) coloring solution was added for reaction. A spectrophotometer was used to detect the absorbance of OD500 nm at room temperature (detection at every 15 seconds for a total of 90 seconds). The principle of the 4-AA assay is that the lactose oxidase oxidized lactose to lactobionic acid, which reduces dissolved oxygen to hydrogen peroxide, and the hydrogen peroxide, phenol, and 4-AA were catalyzed by the peroxidase to produce a red quinoneimine structure and show a stable signal at OD 500 nm.
The enzyme activity was defined as the enzyme concentration that produces 1 μmole hydrogen peroxide per minute. […] Calculation of enzyme activity: unit/ml=(ΔA500 nm/t)×(Vt/6.8)×(1/Ve)×n, in which ΔA500 nm:A500 nm variation in t minutes, 6.8: absorption coefficient of chromogenic material (mM^−1 cm^−1), Vt: total reaction volume, Ve: volume of enzyme was added, and n: fold of dilution of enzyme solution.
A spectrophotometer was used to detect the absorbance of OD500 nm at room temperature (detection at every 15 seconds for a total of 90 seconds), and the enzyme activity was determined.

carbohydrate oxidases = settings: cited from earlier work
[4] = system: carbohydrate oxidases from different strains; settings: cited from earlier work
[5] = metal ions 1 mM, 30° C., 1 hour, 0.7 mM lactose
[6] = metal ions 0.01%, 4% wheat bran medium, 30° C., 4 days

Molecule: c1cnc2c(c1)ccc1cccnc12 [1,10-phenanthroline]
- Relative activity ([1]; chemical 1 mM, 30° C., 1 hour): 98.8%

Molecule: O=C(CBr)c1ccc(Br)cc1 [2,4′-dibromoacetophenone]
- Relative activity ([1]; chemical 1 mM, 30° C., 1 hour): 99%

Molecule: O=[N+]([O-])[O-].[Ag+] [AgNO3]
- Relative activity [2, 5]: 107.9%
- Enzyme activity (NUK-21 strain; [6]): 0.28 unit/ml

Molecule: O=S(=O)([O-])[O-].O=S(=O)([O-])[O-].O=S(=O)([O-])[O-].[Al+3].[Al+3] [Al2(SO4)3]
- Enzyme activity (NUK-21 strain; [6]): 0.37 unit/ml

Molecule: [Ca+2].[Cl-].[Cl-] [CaCl2]
- Relative activity [2, 5]: 109.5%
- Enzyme activity (NUK-21 strain; [6]): 0.20 unit/ml

Molecule: O=S(=O)([O-])[O-].[Cd+2] [CdSO4]
- Relative activity [2, 5]: 100%
- Enzyme activity (NUK-21 strain; [6]): 0.42 unit/ml

Molecule: O=C[C@H](O)[C@@H](O)[C@H](O[C@@H]1O[C@H](CO)[C@@H](O)[C@H](O)[C@H]1O)[C@H](O)CO [Cellobiose]
- Relative activity ([3]; 0.7 mM substrate): 83.4%
- Relative activity ([3]; 7 mM substrate): 81.7%

Molecule: [Cl-].[Cl-].[Co+2] [CoCl2]
- Relative activity [2]: 110.2%
- Enzyme activity (NUK-21 strain): 0.26 unit/ml

Molecule: O=S(=O)([O-])[O-].[Cu+2] [CuSO4]
- Relative activity [2, 5]: 96.8%
- Enzyme activity (NUK-21 strain; [6]): 0.61 unit/ml

Molecule: O=C(O)CN(CCN(CC(=O)O)CC(=O)O)CC(=O)O [EDTA]
- Relative activity [1]: 136.3%
- effect on enzyme activity (in words) [1]: activated

Molecule: O=S(=O)([O-])[O-].O=S(=O)([O-])[O-].O=S(=O)([O-])[O-].[Fe+3].[Fe+3] [Fe2(SO4)3]
- Enzyme activity (NUK-21 strain; [6]): 0.25 unit/ml

Molecule: [Cl][Fe]([Cl])[Cl] [FeCl3]
- Relative activity [2, 5]: 103.2%
- Enzyme activity (NUK-21 strain; [6]): 0.27 unit/ml

Molecule: O=S(=O)([O-])[O-].[Fe+2] [FeSO4]
- Relative activity [2, 5]: 61.1%
- Relative activity ([2]; metal ions 1 mM, 30° C., 1 hour, 0.7 mM lactose, listed as Fe^2+): 61.3%

Molecule: O=C(CO)[C@@H](O)[C@H](O)[C@H](O)CO [Fructose]
- Relative activity ([3]; 0.7 mM substrate): 0%
- Relative activity ([3]; 7 mM substrate): 0%

Molecule: O=C[C@H](O)[C@@H](O)[C@@H](O)[C@H](O)CO [Galactose]
- Relative activity ([3]; 0.7 mM substrate): 0%
- Relative activity ([3]; 7 mM substrate): 1.8%

Molecule: OO [H2O2]
- Relative activity ([1]; chemical 1 mM, 30° C., 1 hour): 100%

Molecule: [Cl][Hg][Cl] [HgCl2]
- Relative activity [2, 5]: 153.8%
- Enzyme activity (NUK-21 strain; [6]): 0.02 unit/ml

Molecule: O=S(=O)([O-])[O-].[K+].[K+] [K2SO4]
- Enzyme activity (NUK-21 strain; [6]): 0.26 unit/ml

Molecule: OC[C@H]1O[C@@H](O[C@H]2[C@H](O)[C@@H](O)C(O)O[C@@H]2CO)[C@H](O)[C@@H](O)[C@H]1O (stereo partly shown) [Lactose]
- Relative activity ([3]; 0.7 mM substrate): 100%
- Relative activity ([3]; 7 mM substrate): 100%

Molecule: OC[C@H]1O[C@H](O[C@H]2[C@H](O)[C@@H](O)[C@H](O)O[C@@H]2CO)[C@H](O)[C@@H](O)[C@@H]1O [Maltose]
- Relative activity ([3]; 0.7 mM substrate): 4.1%
- Relative activity ([3]; 7 mM substrate): 24.8%

Molecule: O=S(=O)([O-])[O-].[Mn+2] [MnSO4]
- Enzyme activity (NUK-21 strain; [6]): 0.37 unit/ml

Molecule: CCN1C(=O)C=CC1=O [N-ethylmaleimide]
- effect on enzyme activity (in words) ([1]; chemical 1 mM): activated
- Relative activity ([1]; chemical 1 mM, 30° C., 1 hour): 139.5%

Molecule: O=S(=O)([O-])[O-].[Na+].[Na+] [Na2SO4]
- Enzyme activity (NUK-21 strain; [6]): 0.26 unit/ml

Molecule: [N-]=[N+]=[N-].[Na+] [NaN3]
- effect on enzyme activity (in words) ([1]; chemical 1 mM): activated
- Relative activity ([1]; chemical 1 mM, 30° C., 1 hour): 131.3%

Molecule: [Cl][Ni][Cl] [NiCl2]
- Enzyme activity (NUK-21 strain; [6]): 0.43 unit/ml

Molecule: O=S(=O)([O-])[O-].[Ni+2] [NiSO4]
- Relative activity [2, 5]: 100%

Molecule: O=S(=O)(F)Cc1ccccc1 [PMSF]
- Relative activity ([1]; chemical 1 mM, 30° C., 1 hour): 104.9%

Molecule: [Cl][Pb][Cl] [PbCl2]
- Relative activity [2, 5]: 89.7%
- Enzyme activity (NUK-21 strain; [6]): 0.29 unit/ml

Molecule: [Cl][Sn][Cl] [SnCl2]
- Relative activity [2, 5]: 61.3%
- Relative activity ([2]; metal ions 1 mM, 30° C., 1 hour, 0.7 mM lactose, listed as Sn^2+): 89.7%

Molecule: [Cl][Sn]([Cl])([Cl])[Cl] [SnCl4]
- Enzyme activity (NUK-21 strain; [6]): 0.32 unit/ml

Molecule: OC[C@@H](O)[C@@H](O)[C@H](O)[C@@H](O)CO [Sorbitol]
- Relative activity ([3]; 0.7 mM substrate): 0%
- Relative activity ([3]; 7 mM substrate): 0%

Molecule: OC[C@H]1O[C@@](CO)(O[C@H]2O[C@H](CO)[C@@H](O)[C@H](O)[C@H]2O)[C@@H](O)[C@@H]1O [Sucrose]
- Relative activity ([3]; 0.7 mM substrate): 0%
- Relative activity ([3]; 7 mM substrate): 0%

Molecule: OC[C@@H](O)[C@H](O)[C@@H](O)CO [Xylitol]
- Relative activity ([3]; 0.7 mM substrate): 0%
- Relative activity ([3]; 7 mM substrate): 0%

Molecule: O=C[C@H](O)[C@@H](O)[C@H](O)CO [Xylose]
- Relative activity ([3]; 0.7 mM substrate): 0%
- Relative activity ([3]; 7 mM substrate): 0%

Molecule: O=S(=O)([O-])[O-].[Zn+2] [ZnSO4]
- Enzyme activity (NUK-21 strain; [6]): 0.22 unit/ml

Molecule: O=C(O)[C@H](O)[C@@H](O)[C@H](O[C@@H]1O[C@H](CO)[C@H](O)[C@H](O)[C@H]1O)[C@H](O)CO [lactobionic acid]
- Relative activity ([3]; 0.7 mM substrate): 0%
- Relative activity ([3]; 7 mM substrate): 0%

B1: Glucooligosaccharide oxidase: carbohydrate oxidase from Acremonium strictum (protein, UniProt Q6PW77 26-499, looked up)
Glucooligosaccharide oxidase: NSINACLAAADVEFHEEDSEGWDMDGTAFNLRVDYDPAAIAIPRSTEDIAAAVQCGLDAGVQISAKGGGHSYGSYGFGGEDGHLMLELDRMYRVSVDDNNVATIQGGARLGYTALELLDQGNRALSHGTCPAVGVGGHVLGGGYGFATHTHGLTLDWLIGATVVLADASIVHVSETENADLFWALRGGGGGFAIVSEFEFNTFEAPEIITTYQVTTTWNRKQHVAGLKALQDWAQNTMPRELSMRLEINANALNWEGNFFGNAKDLKKILQPIMKKAGGKSTISKLVETDWYGQINTYLYGADLNITYNYDVHEYFYANSLTAPRLSDEAIQAFVDYKFDNSSVRPGRGWWIQWDFHGGKNSALAAVSNDETAYAHRDQLWLWQFYDSIYDYENNTSPYPESGFEFMQGFVATIEDTLPEDRKGKYFNYADTTLTKEEAQKLYWRGNLEKLQAIKAKYDPEDVFGNVVSVEPIA
- optimum pH (carbohydrate oxidases): 10
- Substrate specificity ([4]; cellobiose): 120%
- Substrate specificity ([4]; lactose): 100%
- Km ([4]; substrate cellobiose): 120 µM
- Km ([4]; substrate lactose): 380 µM
